Measured values reported in ChEMBL document CHEMBL4350952, “Evolution of PI3Kγ and δ Inhibitors for Inflammatory and Autoimmune Diseases” (J Med Chem, 2019).
pIC50: −log10 of the molar value.

Legend:
[1] = target: T1, Phosphatidylinositol 4,5-bisphosphate 3-kinase catalytic subunit gamma isoform (Homo sapiens, UniProt P48736); test: Inhibition of PI3Kgamma (unknown origin)
[2] = target: T1, Phosphatidylinositol 4,5-bisphosphate 3-kinase catalytic subunit gamma isoform; test: Inhibition of PI3Kgamma in human SUDHL6 cells; assay type: cell-based
Homo sapiens [3] = organism: Homo sapiens; test: Selectivity ratio of IC50 for PI3Kalpha in human SUDHL6 cells to IC50 for PI3Kdelta in human SUDHL6 cells; assay type: cell-based
Homo sapiens [4] = organism: Homo sapiens; test: Selectivity ratio of IC50 for PI3Kbeta in human SUDHL6 cells to IC50 for PI3Kdelta in human SUDHL6 cells; assay type: cell-based
SU-DHL-6 [5] = test: Cytotoxicity against in human SUDHL6 cells; assay type: functional, cell-based
[6] = target: T2, Phosphatidylinositol 4,5-bisphosphate 3-kinase catalytic subunit delta isoform (Homo sapiens, UniProt O00329); test: Inhibition of PI3Kdelta in human SU-DHL6 cells; assay type: cell-based
T2 sequence (O00329 whole entry): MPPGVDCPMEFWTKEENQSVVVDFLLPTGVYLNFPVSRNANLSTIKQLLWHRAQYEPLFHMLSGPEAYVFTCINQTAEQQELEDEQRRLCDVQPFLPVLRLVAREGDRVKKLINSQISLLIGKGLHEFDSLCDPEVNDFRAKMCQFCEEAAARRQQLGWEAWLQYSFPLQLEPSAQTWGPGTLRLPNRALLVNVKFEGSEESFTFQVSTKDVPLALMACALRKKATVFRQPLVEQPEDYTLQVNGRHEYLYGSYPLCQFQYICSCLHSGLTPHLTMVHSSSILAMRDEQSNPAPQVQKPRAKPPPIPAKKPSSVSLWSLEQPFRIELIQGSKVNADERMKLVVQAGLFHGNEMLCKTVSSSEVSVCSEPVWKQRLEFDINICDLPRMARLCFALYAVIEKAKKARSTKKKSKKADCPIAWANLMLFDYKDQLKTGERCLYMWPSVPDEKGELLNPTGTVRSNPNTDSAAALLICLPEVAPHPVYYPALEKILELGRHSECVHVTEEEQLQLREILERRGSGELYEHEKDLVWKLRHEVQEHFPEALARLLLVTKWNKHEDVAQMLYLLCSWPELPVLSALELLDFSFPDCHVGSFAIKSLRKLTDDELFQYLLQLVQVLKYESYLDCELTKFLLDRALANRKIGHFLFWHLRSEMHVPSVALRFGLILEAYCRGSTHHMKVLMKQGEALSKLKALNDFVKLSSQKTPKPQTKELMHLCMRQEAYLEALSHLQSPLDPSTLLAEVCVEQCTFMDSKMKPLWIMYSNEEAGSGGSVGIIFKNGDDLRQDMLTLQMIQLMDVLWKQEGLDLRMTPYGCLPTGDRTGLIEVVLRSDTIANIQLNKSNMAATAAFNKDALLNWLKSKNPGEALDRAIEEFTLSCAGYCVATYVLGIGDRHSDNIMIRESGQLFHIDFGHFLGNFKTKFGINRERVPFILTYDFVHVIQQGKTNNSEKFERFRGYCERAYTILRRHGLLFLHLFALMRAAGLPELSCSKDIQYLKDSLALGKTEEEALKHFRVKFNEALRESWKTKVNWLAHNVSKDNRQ

SU-DHL-6 [7] = test: Cytotoxicity against human SU-DHL6 cells; assay type: functional, cell-based
[8] = target: T2, Phosphatidylinositol 4,5-bisphosphate 3-kinase catalytic subunit delta isoform; test: Inhibition of PI3Kdelta (unknown origin)
[9] = target: T3, PI3-kinase p110-delta/p85-alpha (Homo sapiens, UniProt O00329); test: Inhibition of N-terminal His6-tagged recombinant full length human p110delta/untagged recombinant full length human p85alpha expressed in baculovirus infected Sf21 insect cells after 80 mins by fluorescence polarization assay
T3 sequence (P27986 whole entry, one chain of several, canonical isoform): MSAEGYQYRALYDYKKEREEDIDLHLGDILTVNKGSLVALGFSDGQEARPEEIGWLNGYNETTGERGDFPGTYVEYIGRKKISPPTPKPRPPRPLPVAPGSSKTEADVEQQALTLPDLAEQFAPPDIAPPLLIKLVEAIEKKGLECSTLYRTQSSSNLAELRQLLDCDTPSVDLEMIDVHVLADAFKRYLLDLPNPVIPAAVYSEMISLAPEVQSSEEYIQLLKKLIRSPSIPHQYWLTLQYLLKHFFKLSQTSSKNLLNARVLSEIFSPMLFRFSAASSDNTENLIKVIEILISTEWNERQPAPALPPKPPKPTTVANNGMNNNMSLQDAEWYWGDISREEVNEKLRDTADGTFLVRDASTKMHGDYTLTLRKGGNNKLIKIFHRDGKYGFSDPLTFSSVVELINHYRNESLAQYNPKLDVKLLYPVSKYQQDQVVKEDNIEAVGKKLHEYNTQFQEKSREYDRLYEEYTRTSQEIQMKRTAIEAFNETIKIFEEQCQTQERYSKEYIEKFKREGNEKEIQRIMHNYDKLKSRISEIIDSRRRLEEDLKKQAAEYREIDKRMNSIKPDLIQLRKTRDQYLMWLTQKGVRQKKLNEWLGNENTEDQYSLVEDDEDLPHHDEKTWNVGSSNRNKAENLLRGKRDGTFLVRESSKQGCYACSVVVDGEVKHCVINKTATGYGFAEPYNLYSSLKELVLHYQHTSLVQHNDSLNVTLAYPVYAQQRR

[10] = target: T1, Phosphatidylinositol 4,5-bisphosphate 3-kinase catalytic subunit gamma isoform; test: Inhibition of recombinant N-terminal His-tagged full length human PI3Kgamma expressed in baculovirus expression system after 80 mins by fluorescence polarization assay
Homo sapiens [11] = organism: Homo sapiens; test: Selectivity ratio of IC50 for His-tagged recombiant human full length p110 alpha/p85 alpha IC50 for N-terminal His6-tagged recombinant full length human p110delta/untagged recombinant full length human p85alpha
Homo sapiens [12] = organism: Homo sapiens; test: Selectivity ratio of IC50 for N-terminal His-tagged recombinant human full length p110 beta/untagged recombinant full length human p85alpha IC50 forN-terminal His6-tagged recombinant full length human p110delta/untagged recombinant full length human p85alpha
[13] = target: T3, PI3-kinase p110-delta/p85-alpha; test: Inhibition of N-terminal His6-tagged recombinant full length human p110delta/untagged recombinant full length human p85alpha expressed in baculovirus infected Sf21 insect cells using PIP2 as substrate after 60 mins by HTRF assay
Homo sapiens [14] = organism: Homo sapiens; test: Selectivity ratio of IC50 for N-terminal His6-tagged recombiant human full length p120gamma IC50 for N-terminal His6-tagged recombinant full length human p110delta/untagged recombinant full length human p85alpha
[15] = target: T2, Phosphatidylinositol 4,5-bisphosphate 3-kinase catalytic subunit delta isoform
Description: Inhibition of PI3Kdelta (unknown origin) preincubated for 30 mins followed by insulin stimulation for 5 mins by Western blot analysis

[16] = target: T2, Phosphatidylinositol 4,5-bisphosphate 3-kinase catalytic subunit delta isoform; test: Inhibition of PI3Kdelta in human Pfeiffer cells; assay type: cell-based
Pfeiffer = test: Cytotoxicity against human Pfeiffer cells; assay type: functional, cell-based
[17] = target: Casein kinase I isoform epsilon (Homo sapiens) (UniProt P49674); test: Inhibition of casein kinase 1 epsilon (unknown origin) at 1 uM relative to control
Chain of Casein kinase I isoform epsilon (Homo sapiens) (P49674 whole entry, looked up, canonical isoform): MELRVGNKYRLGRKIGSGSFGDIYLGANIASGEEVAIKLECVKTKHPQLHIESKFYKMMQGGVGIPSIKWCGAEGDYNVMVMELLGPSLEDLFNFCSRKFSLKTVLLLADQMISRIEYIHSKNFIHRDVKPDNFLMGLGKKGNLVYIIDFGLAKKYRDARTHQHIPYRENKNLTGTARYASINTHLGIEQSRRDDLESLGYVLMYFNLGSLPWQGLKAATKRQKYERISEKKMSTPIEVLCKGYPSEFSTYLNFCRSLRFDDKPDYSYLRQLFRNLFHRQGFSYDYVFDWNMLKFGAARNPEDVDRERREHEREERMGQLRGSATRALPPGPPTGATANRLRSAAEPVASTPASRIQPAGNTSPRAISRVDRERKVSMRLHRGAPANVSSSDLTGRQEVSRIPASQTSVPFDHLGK

[18] = target: T1, Phosphatidylinositol 4,5-bisphosphate 3-kinase catalytic subunit gamma isoform; test: Inhibition of PI3Kgamma (unknown origin) using PIP2 as substrate preincubated for 10 mins followed by ATP addition measured after 30 mins by HTRF assay
B cell = test: Cytotoxicity against human B cells; assay type: functional, cell-based
[19] = target: T3, PI3-kinase p110-delta/p85-alpha; test: Inhibition of N-terminal His6-tagged recombinant full length human p110delta/untagged recombinant full length human p85alpha expressed in baculovirus infected Sf21 insect cells after 60 mins by ADP-Glo assay
Raji = test: Cytotoxicity against in human Raji cells; assay type: functional, cell-based
[20] = target: Phosphatidylinositol 3-kinase catalytic subunit type 3 (Homo sapiens, UniProt Q8NEB9); test: Inhibition of Vps34 (unknown origin)
Chain of Phosphatidylinositol 3-kinase catalytic subunit type 3 (Q8NEB9 whole entry): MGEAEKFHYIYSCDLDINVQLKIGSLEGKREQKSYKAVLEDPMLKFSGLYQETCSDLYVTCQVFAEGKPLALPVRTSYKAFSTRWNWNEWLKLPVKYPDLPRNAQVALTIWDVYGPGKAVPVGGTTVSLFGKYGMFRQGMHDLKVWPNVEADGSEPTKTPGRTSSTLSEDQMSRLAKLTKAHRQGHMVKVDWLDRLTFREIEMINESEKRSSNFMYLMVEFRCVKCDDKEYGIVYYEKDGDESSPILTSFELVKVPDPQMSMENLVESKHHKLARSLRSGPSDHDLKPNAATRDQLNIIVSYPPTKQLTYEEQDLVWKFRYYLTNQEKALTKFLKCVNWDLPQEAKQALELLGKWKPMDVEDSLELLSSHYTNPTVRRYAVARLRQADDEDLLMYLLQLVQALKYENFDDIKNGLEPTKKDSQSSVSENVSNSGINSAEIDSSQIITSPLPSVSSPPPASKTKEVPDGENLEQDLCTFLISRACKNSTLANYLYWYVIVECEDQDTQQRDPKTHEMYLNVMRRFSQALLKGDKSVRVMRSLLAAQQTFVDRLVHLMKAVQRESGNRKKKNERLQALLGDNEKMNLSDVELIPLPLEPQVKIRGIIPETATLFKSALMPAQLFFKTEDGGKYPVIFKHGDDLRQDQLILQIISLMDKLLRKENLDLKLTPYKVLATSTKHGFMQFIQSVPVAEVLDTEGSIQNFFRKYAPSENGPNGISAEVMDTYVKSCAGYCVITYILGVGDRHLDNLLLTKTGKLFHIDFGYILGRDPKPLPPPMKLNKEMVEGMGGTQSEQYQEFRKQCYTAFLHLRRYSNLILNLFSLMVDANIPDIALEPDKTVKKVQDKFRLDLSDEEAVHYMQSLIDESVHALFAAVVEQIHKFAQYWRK

[21] = target: DNA-dependent protein kinase catalytic subunit (Homo sapiens, UniProt P78527); test: Inhibition of DNAPK (unknown origin)
[22] = target: Serine/threonine-protein kinase SIK1 (Homo sapiens) (UniProt P57059); test: Inhibition of SIK (unknown origin) at 1 uM relative to control
Chain of Serine/threonine-protein kinase SIK1 (Homo sapiens) (P57059 whole entry): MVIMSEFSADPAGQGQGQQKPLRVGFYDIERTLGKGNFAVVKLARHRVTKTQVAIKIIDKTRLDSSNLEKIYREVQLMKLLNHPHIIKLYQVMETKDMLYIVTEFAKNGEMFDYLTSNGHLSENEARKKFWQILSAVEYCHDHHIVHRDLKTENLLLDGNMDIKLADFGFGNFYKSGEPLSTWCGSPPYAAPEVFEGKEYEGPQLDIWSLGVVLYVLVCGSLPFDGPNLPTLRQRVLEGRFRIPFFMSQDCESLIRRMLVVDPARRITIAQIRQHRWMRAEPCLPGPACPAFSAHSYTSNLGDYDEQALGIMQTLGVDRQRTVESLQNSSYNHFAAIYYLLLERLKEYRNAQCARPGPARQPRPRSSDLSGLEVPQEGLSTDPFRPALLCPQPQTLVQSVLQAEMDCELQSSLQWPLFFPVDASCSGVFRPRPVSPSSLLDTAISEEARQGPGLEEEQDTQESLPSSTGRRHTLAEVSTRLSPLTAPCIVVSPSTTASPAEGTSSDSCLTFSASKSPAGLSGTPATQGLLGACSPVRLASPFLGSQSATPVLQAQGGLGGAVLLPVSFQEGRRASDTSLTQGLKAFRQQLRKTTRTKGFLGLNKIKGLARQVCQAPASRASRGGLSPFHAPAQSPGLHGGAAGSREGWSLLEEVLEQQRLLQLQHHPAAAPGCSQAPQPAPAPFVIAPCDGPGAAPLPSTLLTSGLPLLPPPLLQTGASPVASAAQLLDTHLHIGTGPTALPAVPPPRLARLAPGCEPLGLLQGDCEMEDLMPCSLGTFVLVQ

[23] = Cytotoxicity against basophil derived from B-cell malignant patient by cell-titer aqueous one solution cell proliferation assay; assay type: functional; conditions: Homo sapiens
JeKo-1 = test: Cytotoxicity against human JeKo1 cells; assay type: functional, cell-based
[24] = target: T3, PI3-kinase p110-delta/p85-alpha; test: Inhibition of N-terminal His6-tagged recombinant full length human p110delta/untagged recombinant full length human p85alpha expressed in baculovirus infected Sf21 insect cells after 20 mins by alphascreen assay
[25] = target: T2, Phosphatidylinositol 4,5-bisphosphate 3-kinase catalytic subunit delta isoform; test: Inhibition of PI3Kdelta in human Neutrophil cells; assay type: cell-based
[26] = target: T1, Phosphatidylinositol 4,5-bisphosphate 3-kinase catalytic subunit gamma isoform; test: Inhibition of PI3Kgamma in human Neutrophil cells; assay type: cell-based
Homo sapiens [27] = organism: Homo sapiens; test: Selectivity ratio of IC50 for PI3Kalpha in human Neutrophil cells to IC50 for PI3Kdelta in human Neutrophil cells; assay type: cell-based
Homo sapiens [28] = organism: Homo sapiens; test: Selectivity ratio of IC50 for PI3Kbeta in human Neutrophil cells to IC50 for PI3Kdelta in human Neutrophil cells; assay type: cell-based
Neutrophil = test: Cytotoxicity against in human Neutrophil cells; assay type: cell-based
[29] = Cytotoxicity against human basophil cells after 24 hrs by MTT assay; assay type: cell-based
[30] = target: T1, Phosphatidylinositol 4,5-bisphosphate 3-kinase catalytic subunit gamma isoform; test: Inhibition of GST-tagged PI3Kgamma (unknown origin) using PIP2 as substrate preincubated for 2 hrs followed by ATP addition measured after 30 mins by TR-FRET assay
Jurkat = test: Cytotoxicity against human Jurkat cells; assay type: functional, cell-based
[31] = Cytotoxicity against human SUDHL cells; assay type: functional, cell-based

T1 sequence (P48736 whole entry, canonical isoform): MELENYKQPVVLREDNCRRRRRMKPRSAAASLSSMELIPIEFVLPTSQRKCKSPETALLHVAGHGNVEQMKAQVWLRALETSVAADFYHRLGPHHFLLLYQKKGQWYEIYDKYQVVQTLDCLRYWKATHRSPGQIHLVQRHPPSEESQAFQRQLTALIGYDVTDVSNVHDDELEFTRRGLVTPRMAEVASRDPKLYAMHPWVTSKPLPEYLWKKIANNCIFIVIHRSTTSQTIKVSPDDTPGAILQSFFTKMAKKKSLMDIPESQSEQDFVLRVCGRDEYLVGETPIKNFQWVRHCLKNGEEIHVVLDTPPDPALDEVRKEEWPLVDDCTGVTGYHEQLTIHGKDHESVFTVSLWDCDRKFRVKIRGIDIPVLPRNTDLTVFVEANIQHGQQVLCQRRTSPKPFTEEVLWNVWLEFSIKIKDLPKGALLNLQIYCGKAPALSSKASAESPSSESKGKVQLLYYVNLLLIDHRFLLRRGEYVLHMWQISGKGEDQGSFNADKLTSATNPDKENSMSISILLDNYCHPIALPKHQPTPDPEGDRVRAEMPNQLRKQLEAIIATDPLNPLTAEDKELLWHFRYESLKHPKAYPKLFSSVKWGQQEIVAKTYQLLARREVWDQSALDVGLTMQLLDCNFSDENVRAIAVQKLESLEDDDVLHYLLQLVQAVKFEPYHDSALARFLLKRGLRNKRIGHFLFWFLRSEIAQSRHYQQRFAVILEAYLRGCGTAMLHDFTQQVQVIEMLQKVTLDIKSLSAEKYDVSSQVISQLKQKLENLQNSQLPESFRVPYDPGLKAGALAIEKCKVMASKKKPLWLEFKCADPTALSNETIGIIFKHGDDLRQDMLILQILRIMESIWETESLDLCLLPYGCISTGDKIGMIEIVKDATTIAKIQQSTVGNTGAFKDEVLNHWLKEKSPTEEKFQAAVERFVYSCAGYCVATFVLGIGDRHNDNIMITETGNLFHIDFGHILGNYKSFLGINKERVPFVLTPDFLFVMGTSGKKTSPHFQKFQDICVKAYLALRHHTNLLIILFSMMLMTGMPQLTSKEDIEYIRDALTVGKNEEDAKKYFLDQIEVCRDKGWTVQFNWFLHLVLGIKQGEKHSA

CC(c1oc(=O)c2ccccc2c1C1=CCN(C)CC1)n1nc(-c2cc(O)cc(F)c2)c2c(N)ncnc21 (stereo not given)
pIC50 [1]: < 6.00

C[C@H](Nc1ncnc2[nH]cnc12)C1=Nc2cccc(Cl)c2S(=O)(=O)N1c1ccccc1
pIC50 [2]: 7.47 | Ratio IC50 (Homo sapiens [3]): 790 | Ratio IC50 (Homo sapiens [4]): 170 | pIC50 (SU-DHL-6 [5]): 8.22

C[C@H](Nc1nc(N)nc(N)c1C#N)c1cn2ncc(Cl)c2nc1-c1cccc(F)c1
pIC50 [6]: > 7.70 | pIC50 (SU-DHL-6 [7]): > 7.70

CC(Nc1ncnc2[nH]cnc12)c1cc2ccccn2c(=O)c1-c1ccccc1 (stereo not given)
pIC50 [8]: 8.00 to 10.00

C[C@H](Nc1ncnc(N)c1C#N)c1cc2ncc(Cl)n2cc1-c1ccccc1
pIC50 [8]: 9.70 | pIC50 [1]: 7.06

C[C@H]1CN(c2nc(N)nc3c2S(=O)(=O)CC3)[C@@H]1c1nn2ccc(Cl)c2c(=O)n1-c1ccccc1
pIC50 [9]: 8.40 | pIC50 [10]: 8.52 | Ratio IC50 (Homo sapiens [11]): 250 | Ratio IC50 (Homo sapiens [12]): 250

Cc1ncc(-c2nc3c(-c4ccc5c(c4)C4(CCCN4S(C)(=O)=O)C(=O)N5)ncnc3n2C)cn1 (stereo not given)
pIC50 [13]: 9.15

Cc1nc(NC(=O)CNC(=O)c2ccccc2)sc1-c1cnc(Cl)c(NS(=O)(=O)c2ccccc2)c1
pIC50 [8]: 9.22 | Ratio IC50 (Homo sapiens [14]): 71

Cc1ccn2nc([C@H](C)Nc3ncnc4[nH]cc(-c5ccc(O)c(CN6CCC(N(C)C)CC6)c5)c34)n(-c3ccccc3)c(=O)c12
pIC50 [15]: 9.37

Cc1nc(N)nc(N[C@@H](C)c2nc3ccn(C)c3cc2N2CCNCC2)c1C#N
pIC50 [8]: 9.15

Cc1c(Cl)cc(C(C)Nc2ncnc3nc[nH]c23)c(-c2cccc(F)c2)c1C(N)=O (stereo not given)
pIC50 [16]: > 7.30 | pIC50 (Pfeiffer): > 7.30

Cc1csc2cc(C(C)Nc3ncnc4[nH]cnc34)c(-c3ccccc3)c(=O)n12 (stereo not given)
pIC50 (SU-DHL-6 [7]): 7.44

CC(C)Oc1ccc(-c2nn([C@@H](C)c3oc4ccc(F)cc4c(=O)c3-c3cccc(F)c3)c3ncnc(N)c23)cc1F [UMBRALISIB]
inhibition [17]: > 60% | pIC50 [18]: < 6.92

COc1ccc(-c2nc3c(O[C@H]4CCN(C(=O)C5CCOCC5)C4)ncnc3n2C)cn1
pIC50 [13]: > 9.00

CCOc1c([C@H](C)n2nc(C)c3c(N)ncnc32)cc(Cl)c(F)c1[C@@H]1CNC(=O)C1 [PARSACLISIB]
pIC50 (B cell): 9.82

C[C@H](Nc1ncnc(N)c1C#Cc1ccc(F)cn1)c1nc2c(F)ccc(F)c2c(=O)n1-c1cc(F)cc(F)c1
pIC50 [15]: > 7.00

CC(c1cc2ccccn2c1-c1ccc(=O)n(CCN2CCOCC2)n1)n1nc(-c2cc(O)cc(F)c2)c2c(N)ncnc21 (stereo not given)
pIC50 [8]: 6.00 to 8.00 | pIC50 [1]: > 8.00

CC[C@H](Nc1ncnc2c1nc(-c1cnn(CC)c1C)n2C)C(=O)N1CCC(F)(F)CC1
pIC50 [13]: 8.55

Cc1nn(C)c(-c2ccccc2)c1Cn1nc(-c2cc(O)cc(F)c2)c2c(N)ncnc21
pIC50 [19]: > 6.00

C[C@H](Nc1ncnc2nc[nH]c12)c1cc2cccc(Cl)c2c(=O)n1-c1ccccc1 [DUVELISIB]
pIC50 (Raji): 9.44

C[C@H](NC(=O)c1c(N)nn2cccnc12)c1cc2cccc(C#Cc3cnn(C)c3)c2c(=O)n1-c1ccccc1 [EGANELISIB]
pIC50 [20]: 4.40 | pIC50 [21]: 5.32 | inhibition [22]: 88%

CC[C@H](Nc1ncnc(N)c1-c1nnc(C)o1)c1nc2cccc(Cl)c2c(=O)n1-c1ccccc1
pIC50 [15]: 8.70

Cn1c(C(=O)NCC2CC2)nc2c(N3CCC(n4c(=O)[nH]c5ccccc54)CC3)ncnc21
pIC50 [13]: 8.12 | Ratio IC50 (Homo sapiens [14]): > 13

Cc1csc2nc([C@H](C)Nc3ncnc4[nH]cnc34)c(-c3cccc(F)c3)c(=O)n12 [DEZAPELISIB]
pIC50 [23]: 7.46

Cn1nc(-c2cnc(N)c(-c3ccc(C(N)=O)c(F)c3)n2)nc1C1(c2ccccc2)CC1
pIC50 (JeKo-1): 6.92

COc1c(C(C)Nc2ncnc(N)c2C#N)cc(Cl)c(C)c1-c1cccnc1 (stereo not given)
pIC50 (Pfeiffer): > 7.70 | pIC50 [24]: > 7.70

[O-][n+]1cccc(-c2nc3c(Cl)cccc3cc2[C@@H](Nc2ncnc3cccnc23)C(F)(F)F)c1 [SELETALISIB]
pIC50 [25]: 7.92 | pIC50 [26]: 6.55 | Ratio IC50 (Homo sapiens [27]): 300 | Ratio IC50 (Homo sapiens [28]): 180 | pIC50 (Neutrophil): 7.80

C[C@H](Nc1ncnc(N)c1-c1nnn[nH]1)c1nn2cccc2c(=O)n1-c1ccccc1
pIC50 [15]: 9.70

Cc1cccc2nc([C@H](C)Nc3ncnc4[nH]cc(-c5cccc(NS(C)(=O)=O)c5)c34)n(-c3ccccc3)c(=O)c12
pIC50 [15]: 10.40

CCC(=O)N1CC[C@H](Oc2ncnc3c2nc(-c2cnn(CC)c2C)n3C)C1
pIC50 [13]: > 9.00

C[C@H](Nc1ncnc2[nH]cnc12)c1nc2ccc(F)cc2c(=O)n1-c1ccccc1 [ACALISIB]
pIC50 [29]: 7.72 | pIC50 [30]: 5.52

Cc1ccc2c(c1)C(=O)N(C)c1cnc(Nc3cccc(S(=O)(=O)N4CCC(O)CC4)c3)nc1N2C
pIC50 [8]: 8.70 | Ratio IC50 (Homo sapiens [14]): 3.5 | pIC50 (Jurkat): 5.85

CC[C@H](Nc1ncnc2[nH]cnc12)c1nc2cccc(F)c2c(=O)n1-c1ccccc1 [IDELALISIB]
pIC50 [23]: 6.07

CCn1c(-c2ccc(C(F)(F)F)nc2)nc2c(NC3CCc4nnc(C(C)C)n4C3)ncnc21 (stereo not given)
pIC50 [13]: > 9.00

CC(=O)N1CC(N2CCOc3c(C(C)n4nc(C)c5c(N)ncnc54)cc(Cl)c(C)c3C2)C1 (stereo not given)
pIC50 [24]: > 7.00 | pIC50 [31]: > 6.30

CCn1c(-c2cnc(C)nc2)nc2c(NC3CCc4nc(Cl)n(C5CC5)c4C3)ncnc21 (stereo not given)
pIC50 [13]: > 9.00
